According to ChEMBL document CHEMBL6103588, “Promising thiazolidinedione-thiazole based multi-target and neuroprotective hybrids for Alzheimer's disease: Design, synthesis, in-vitro, in-vivo and in-silico studies” (Eur J Med Chem, 2025):
Calls of active or inactive are those of the source. The rule behind the calls is not given here.

Legend:
[1] = Acute toxicity in male Swiss albino mouse assessed as mortality rate at 1500 mg/kg BW, po administered as single dose via gavage measured after 48 hrs by up-and-down method relative to control; format: organism-based; conditions: in vivo
[2] = target: Acetylcholinesterase (Electrophorus electricus, UniProt O42275); assay: Inhibition of Electric eel AChE using acetylthiocholine iodide as substrate pre-incubated for 10 mins followed by substrate addition and measured after 15 mins by DTNB reagent based Ellman's method; conditions: read-out: IC50
[3] = target: T1, Amine oxidase [flavin-containing] A (Homo sapiens, UniProt P21397); assay: Inhibition of human MAO-A using tyramine/benzylamine as substrate measured after 30 mins by fluorometric assay; conditions: read-out: IC50
T1 sequence (P21397 whole entry): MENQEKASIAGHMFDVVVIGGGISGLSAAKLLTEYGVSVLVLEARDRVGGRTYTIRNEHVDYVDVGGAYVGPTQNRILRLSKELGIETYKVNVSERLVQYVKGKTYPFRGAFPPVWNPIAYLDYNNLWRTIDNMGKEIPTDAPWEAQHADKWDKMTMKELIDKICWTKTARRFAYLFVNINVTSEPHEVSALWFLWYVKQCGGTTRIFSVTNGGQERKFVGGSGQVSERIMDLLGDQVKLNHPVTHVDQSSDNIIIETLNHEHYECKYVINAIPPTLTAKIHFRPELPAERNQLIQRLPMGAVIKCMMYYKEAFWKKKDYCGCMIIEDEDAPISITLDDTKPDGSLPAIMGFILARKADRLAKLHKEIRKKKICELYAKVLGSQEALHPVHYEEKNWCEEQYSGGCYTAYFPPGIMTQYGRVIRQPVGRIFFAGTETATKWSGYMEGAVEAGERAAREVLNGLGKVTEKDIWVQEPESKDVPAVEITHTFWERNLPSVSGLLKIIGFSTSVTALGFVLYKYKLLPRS

[4] = target: T2, Amine oxidase [flavin-containing] B (Homo sapiens, UniProt P27338); assay: Inhibition of human MAO-B using tyramine/benzylamine as substrate measured after 30 mins by fluorometric assay
T2 sequence (P27338 whole entry): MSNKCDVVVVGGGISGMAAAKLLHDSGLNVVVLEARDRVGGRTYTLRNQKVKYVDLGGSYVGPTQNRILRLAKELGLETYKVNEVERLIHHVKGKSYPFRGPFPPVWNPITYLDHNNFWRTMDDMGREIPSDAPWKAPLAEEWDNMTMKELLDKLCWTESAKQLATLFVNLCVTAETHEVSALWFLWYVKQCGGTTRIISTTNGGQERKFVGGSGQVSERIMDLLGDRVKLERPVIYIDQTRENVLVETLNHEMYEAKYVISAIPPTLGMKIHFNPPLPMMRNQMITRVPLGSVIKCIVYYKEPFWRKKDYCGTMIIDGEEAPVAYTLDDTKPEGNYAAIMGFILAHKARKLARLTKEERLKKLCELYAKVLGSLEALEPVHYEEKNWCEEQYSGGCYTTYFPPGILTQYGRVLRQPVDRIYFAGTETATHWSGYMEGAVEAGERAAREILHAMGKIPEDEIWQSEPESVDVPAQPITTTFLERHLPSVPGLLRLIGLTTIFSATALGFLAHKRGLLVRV

[5] = target: Acetylcholinesterase (Electrophorus electricus) (UniProt O42275); assay: Mixed-type inhibition of electric eel AChE using acetylthiocholine iodide as substrate assessed as decrease in Vmax […] at 0.036 to 0.144 uM preincubated for 15 mins by Lineweaver-burk plot analysis; conditions: dose 0.036-0.144 µM
[6] = Neurotoxicity against human SH-SY5Y cells assessed as reduction in cell viability upto 50 uM incubated for 24 hrs by MTT assay; format: toxicity, cell-based
[7] = Neurotoxicity against human SH-SY5Y cells assessed as reduction in cell viability at 100 uM incubated for 24 hrs by MTT assay; format: toxicity, cell-based
[8] = Acute toxicity in male Swiss albino mouse assessed as signs of distress at 1500 mg/kg BW, po administered as single dose via gavage measured after 48 hrs by up-and-down method; format: organism-based; conditions: in vivo
[9] = Acute toxicity in male Swiss albino mouse assessed as signs of discomfort at 1200 mg/kg BW, po administered as single dose via gavage measured after 20 mins by up-and-down method; format: organism-based; conditions: in vivo
[10] = Acute toxicity in male Swiss albino mouse assessed as signs of pain at 1200 mg/kg BW, po administered as single dose via gavage measured after 20 mins by up-and-down method; format: organism-based; conditions: in vivo
[11] = Acute toxicity in male Swiss albino mouse assessed as ataxia at 1200 mg/kg BW, po administered as single dose via gavage measured after 20 mins by up-and-down method; format: organism-based; conditions: in vivo
[12] = Acute toxicity in male Swiss albino mouse assessed as lethargy at 450 mg/kg BW, po administered as single dose via gavage measured after 1 hrs by up-and-down method; format: organism-based; conditions: in vivo
[13] = Acute toxicity in male Swiss albino mouse assessed as survival time at 1500 mg/kg BW, po administered as single dose via gavage by up-and-down method; format: organism-based; conditions: in vivo
[14] = Acute toxicity in male Swiss albino mouse assessed as survival time at 1200 mg/kg BW, po administered as single dose via gavage by up-and-down method; format: organism-based; conditions: in vivo
[15] = Acute toxicity in male Swiss albino mouse assessed as survival time at 450 mg/kg BW, po administered as single dose via gavage by up-and-down method; format: organism-based; conditions: in vivo
[16] = Acute toxicity in male Swiss albino mouse assessed as survival time at 250 mg/kg BW, po administered as single dose via gavage by up-and-down method; format: organism-based; conditions: in vivo
[17] = Acute toxicity in male Swiss albino mouse assessed as mortality rate at 1200 mg/kg BW, po administered as single dose via gavage measured after 48 hrs by up-and-down method relative to control; format: organism-based; conditions: in vivo
[18] = Acute toxicity in male Swiss albino mouse assessed as mortality rate at 650 mg/kg BW, po administered as single dose via gavage measured after 48 hrs by up-and-down method relative to control; format: organism-based; conditions: in vivo
[19] = Acute toxicity in male Swiss albino mouse assessed as mortality rate at 450 to 50 mg/kg BW, po administered as single dose via gavage measured after 48 hrs by up-and-down method relative to control; format: organism-based; conditions: in vivo, at 50 to 450 mg/kg, dose 450-50 mg/kg
[20] = test system: Mus musculus; assay: Antioxidant activity against scopolamine-induced Albino mouse assessed as increase in SOD level in brain at 5 mg/kg measured after 24 hrs; format: functional
[21] = test system: Mus musculus; assay: Antioxidant activity against scopolamine-induced Albino mouse assessed as decrease in MDA level in brain at 5 mg/kg measured after 24 hrs; format: functional
[22] = Lipophilicity, logP of compound; format: physicochemical; conditions: octanol/water
[23] = test system: Mus musculus; assay: Antioxidant activity against scopolamine-induced Albino mouse assessed as increase in catalase activity in brain at 5 mg/kg measured after 24 hrs; format: functional, organism-based

Acetylcholinesterase, sequence (O42275 whole entry): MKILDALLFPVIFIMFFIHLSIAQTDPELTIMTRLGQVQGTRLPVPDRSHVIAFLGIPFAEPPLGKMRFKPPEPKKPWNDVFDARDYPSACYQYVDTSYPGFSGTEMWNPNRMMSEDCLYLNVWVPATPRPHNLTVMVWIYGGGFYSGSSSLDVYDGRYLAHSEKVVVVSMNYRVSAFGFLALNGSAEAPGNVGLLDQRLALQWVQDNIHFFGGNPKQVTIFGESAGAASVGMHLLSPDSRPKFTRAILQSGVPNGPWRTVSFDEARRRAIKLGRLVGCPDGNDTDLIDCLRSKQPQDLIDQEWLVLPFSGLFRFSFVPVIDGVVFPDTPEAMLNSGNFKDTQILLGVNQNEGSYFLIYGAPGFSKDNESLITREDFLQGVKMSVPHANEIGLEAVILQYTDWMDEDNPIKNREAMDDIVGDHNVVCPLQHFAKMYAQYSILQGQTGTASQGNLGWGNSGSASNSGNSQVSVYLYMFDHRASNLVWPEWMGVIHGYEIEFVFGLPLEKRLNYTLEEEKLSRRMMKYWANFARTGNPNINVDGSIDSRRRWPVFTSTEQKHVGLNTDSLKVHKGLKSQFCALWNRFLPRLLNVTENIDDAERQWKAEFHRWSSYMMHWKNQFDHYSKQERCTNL
Acetylcholinesterase (Electrophorus electricus), sequence (O42275 24-633 limits assumed): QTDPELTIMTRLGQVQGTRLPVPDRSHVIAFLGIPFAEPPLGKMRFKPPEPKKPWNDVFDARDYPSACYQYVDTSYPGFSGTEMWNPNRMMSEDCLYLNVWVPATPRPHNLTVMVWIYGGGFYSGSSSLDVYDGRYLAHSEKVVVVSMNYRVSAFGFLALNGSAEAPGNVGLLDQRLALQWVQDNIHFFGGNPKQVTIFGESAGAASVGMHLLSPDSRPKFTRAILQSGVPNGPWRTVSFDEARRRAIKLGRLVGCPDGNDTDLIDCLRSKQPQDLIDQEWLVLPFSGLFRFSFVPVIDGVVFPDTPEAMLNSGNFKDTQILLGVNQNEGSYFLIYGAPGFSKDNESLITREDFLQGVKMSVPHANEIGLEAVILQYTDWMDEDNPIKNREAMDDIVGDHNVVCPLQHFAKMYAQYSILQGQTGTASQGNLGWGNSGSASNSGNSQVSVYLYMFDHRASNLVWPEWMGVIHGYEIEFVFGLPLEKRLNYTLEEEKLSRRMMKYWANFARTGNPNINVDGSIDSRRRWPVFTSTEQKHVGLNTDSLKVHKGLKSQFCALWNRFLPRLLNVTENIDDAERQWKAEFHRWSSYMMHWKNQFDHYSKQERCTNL

COc1cc(/C=C/C(=O)Nc2ccc3sc(NCN4C(=O)CSC4=O)nc3c2)ccc1O
mortality at 48 h [1]: 100%
IC50 [2]: 72 nM
IC50 [3]: 14500 nM
IC50 [4]: 24 nM
inhibition [5]: Active; Inhibition Of Free Enzyme And Enzyme-Substrate Complex.
Activity [6]: Non-toxic
Activity [7]: Toxic
Activity [8]: Toxic
Activity [9]: Toxic
Activity [10]: Toxic
Activity [11]: Toxic
Activity [12]: Toxic
Time [13]: 15 min
Time [14]: 40 min
Time [15]: > 48 h
Time [16]: > 48 h
mortality at 48 h [17]: 80%
mortality at 48 h [18]: 28.6%
mortality at 48 h [19]: 0%
Activity [20]: 95.03 U/ml
Activity [21]: 1.95 nmol/mL
logP [22]: 3.34
Activity [23]: Active
